{"source": "patent US20130295036A1", "about": "“METHOD OF USING WOOD EXTRACTS IN COSMETIC AND HYGIENE PRODUCTS” (FLAVITPURE, INC., priority 2012, published 2013)", "key": {"rats": {"test_system": "rats", "settings": "high levels for long periods of time; cited from earlier work"}, "lipid peroxidation": {"test_system": "lipid peroxidation", "settings": "in vitro and ex vivo; cited from earlier work"}, "serum and liver lipids": {"test_system": "serum and liver lipids", "settings": "following exposure to toxic ionizing radiation; cited from earlier work"}, "[1]": {"test_system": "dendritic cells of bone marrow and spleen", "settings": "cited from earlier work"}, "[2]": {"test_system": "Antioxidant Response Element", "settings": "cited from earlier work"}, "[3]": {"test_system": "5-LOX mediated LT biosynthesis", "assay": "Leukotriene (LT) biosynthesis inhibition", "format": "biochemical", "source_text": "(§1) The body's early defense in response to trauma, inflammation or infection, the acute phase response (APR), is a complex set of systemic reactions seen shortly after exposure to a triggering event. The APR is induced by protein hormones called cytokines acting as messengers between the local site of injury and the hepatocytes synthesizing the acute phase proteins such as serum amyloid A. Most cytokines have multiple sources, targets and multiple functions. The pro-inflammatory cytokines can be divided into two major groups with respect to acute phase proteins inductions, the Interleukin-1 (IL-1) type (including Tumor Necrosis Factor-a, TNF-a) and the IL-6 type cytokines (including IL-6 cytokine). These cytokines are secreted primarily by monocytes activated by bacterial toxins or in response to local tissue injury."}, "COX-2": {"target": "T1, COX-2 (Homo sapiens, UniProt P35354)", "T1 sequence (P35354 18-604)": "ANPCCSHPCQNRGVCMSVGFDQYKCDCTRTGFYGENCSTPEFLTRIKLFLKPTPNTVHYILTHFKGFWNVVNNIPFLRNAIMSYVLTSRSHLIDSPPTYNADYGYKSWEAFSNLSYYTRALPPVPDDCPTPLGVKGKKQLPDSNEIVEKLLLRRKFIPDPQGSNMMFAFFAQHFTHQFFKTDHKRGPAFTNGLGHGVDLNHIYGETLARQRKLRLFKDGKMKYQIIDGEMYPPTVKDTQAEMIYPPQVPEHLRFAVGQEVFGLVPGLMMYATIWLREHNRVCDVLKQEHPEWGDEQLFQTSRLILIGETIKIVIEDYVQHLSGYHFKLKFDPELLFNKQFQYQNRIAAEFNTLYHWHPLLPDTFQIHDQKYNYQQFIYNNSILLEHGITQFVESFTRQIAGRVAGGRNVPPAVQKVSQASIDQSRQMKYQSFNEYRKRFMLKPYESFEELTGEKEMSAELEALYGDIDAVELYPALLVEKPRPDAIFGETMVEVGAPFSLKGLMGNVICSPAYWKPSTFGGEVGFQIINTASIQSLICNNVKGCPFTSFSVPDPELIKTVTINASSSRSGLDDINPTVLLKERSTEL", "assay": "COX-2 inhibition", "format": "biochemical", "source_text": "as §1"}}}
{"smiles": "O=C1c2c(O)cc(O)cc2O[C@H](c2ccc(O)c(O)c2)[C@H]1O", "note": "[Dihydroquercetin (taxifolin), (2R,3R)-2-(3,4-dihydroxyphenyl)-3,5,7-trihydroxy-chroman-4-one]", "values": [{"measurement": "toxic effects", "setting": "rats", "value": "No toxic effects"}, {"measurement": "inhibition of lipid peroxidation", "setting": "lipid peroxidation", "value": "inhibits lipid peroxidation"}, {"measurement": "peroxidation of serum and liver lipids", "setting": "serum and liver lipids", "value": "inhibited"}, {"measurement": "production of cytokines, formation of ROS and NO, and change in intracellular Ca2+ levels", "setting": "[1]", "value": "significant inhibitory effect"}, {"measurement": "activation of Antioxidant Response Element", "setting": "[2]", "value": "significantly activates"}]}
{"smiles": "C=C[C@@]1(C)CC[C@H]2C(=CC[C@@H]3[C@]2(C)CCC[C@@]3(C)C(=O)O)C1", "note": "[Isopimaric acid]", "values": [{"measurement": "LT biosynthesis inhibitory activity", "setting": "[3]", "value": "potent inhibitor"}]}
{"smiles": "C=CC(C)(O)CCC1C(=C)CC(OC(C)=O)C2C(C)(C)CCCC12C", "note": "(stereo not shown) [Larixyl acetate]", "values": [{"measurement": "LT biosynthesis inhibitory activity", "setting": "[3]", "value": "highly active"}]}
{"smiles": "CC(C)c1ccc2c(c1)CC[C@H]1[C@](C)(CO)CCC[C@]21C", "note": "[dehydroabietinol]", "values": [{"measurement": "LT biosynthesis inhibitory activity", "setting": "[3]", "value": "high LT formation inhibitory activity"}]}
{"smiles": "CC(C)C1=CC2=C(CC1)[C@@]1(C)CCC[C@@](C)(C(=O)O)[C@@H]1CC2", "note": "[palustric acid]", "values": [{"measurement": "LT biosynthesis inhibitory activity", "setting": "[3]", "value": "less pronounced"}, {"measurement": "COX-2 inhibitory activity", "setting": "COX-2", "value": "moderate"}]}
